# Measurements as given in ChEMBL document CHEMBL4411300 (Eur J Med Chem, 2019).
# The source made the active and inactive calls. The calls are words filed in the database; no cut-off is given here.
# Legend:
# Trypanosoma cruzi [1] = assay: Trypanocidal activity against Trypanosoma cruzi IRHOD/CO/2008/SN3 DTU 1 epimastigotes after 48 to 72 hrs by resazurin dye based assay; type: functional, organism-based
# Trypanosoma cruzi [2] = assay: Trypanocidal activity against Trypanosoma cruzi IRHOD/CO/2008/SN3 DTU 1 trypomastigotes derived from infected Balb/c albino mouse after 24 hrs by resazurin dye based assay; type: functional, organism-based; conditions: IRHOD/CO/2008/SN3 DTU 1, 24 h
# [3] = Selectivity index, ratio of IC50 for African green monkey Vero cells to IC50 for Trypanosoma cruzi MHOM/Pe/2011/Arequipa DTU 5 amastigotes infected in African green monkey Vero cells; type: toxicity; conditions: read-out: Ratio IC50
# [4] = Toxicity in Balb/c mouse assessed as death at 20 mg/kg, po once daily for 5 consecutive days starting from day 10 post infection; type: organism-based; conditions: in vivo
# [5] = Toxicity in Balb/c mouse assessed as death at 20 mg/kg, po once daily for 5 consecutive days starting from day 75 post infection; type: organism-based; conditions: in vivo
# Trypanosoma cruzi [6] = assay: Antitrypanosomal activity against Trypanosoma cruzi MHOM/Pe/2011/Arequipa DTU 5 trypomastigotes infected in Balb/c mouse assessed as reduction in splenomegaly at 20 mg/kg, po once daily for 5 consecutive days starting from day 10 post infection measured on day 127 post infection; type: functional, organism-based
# Trypanosoma cruzi [7] = assay: Antitrypanosomal activity against Trypanosoma cruzi MHOM/Pe/2011/Arequipa DTU 5 trypomastigotes infected in Balb/c mouse assessed as reduction in splenomegaly at 20 mg/kg, po once daily for 5 consecutive days starting from day 75 post infection measured on day 127 post infection; type: functional, organism-based
# Trypanosoma cruzi [8] = assay: Antitrypanosomal activity against Trypanosoma cruzi MHOM/Pe/2011/Arequipa DTU 5 epimastigotes assessed as effect on parasite glycolytic pathway by measuring decrease in L-alanine excretion at IC25 after 72 hrs by 1H NMR method; type: functional, organism-based
# Trypanosoma cruzi [9] = assay: Antitrypanosomal activity against Trypanosoma cruzi MHOM/Pe/2011/Arequipa DTU 5 epimastigotes assessed as change in mitochondrial membrane potential at IC25 after 72 hrs by Rho123 staining based flow cytometry relative to control; type: functional
# Trypanosoma cruzi [10] = assay: Induction of […] Trypanosoma cruzi MHOM/Pe/2011/Arequipa DTU 5 epimastigotes assessed as inhibition of DNA and RNA levels at IC25 after 72 hrs by acridine orange staining based flow cytometry relative to control; type: functional
# [11] = Inhibition of Trypanosoma cruzi MHOM/Pe/2011/Arequipa DTU 5 epimastigotes Fe-SOD by UV-Visible spectrophotometric method
# [12] = Nephrotoxicity in Balb/c mouse infected with Trypanosoma cruzi MHOM/Pe/2011/Arequipa DTU 5 trypomastigotes assessed as decrease in serum urea level at 20 mg/kg, po once daily for 5 consecutive days starting from day 10 post infection measured on day 16 post infection relative to control; type: toxicity, organism-based; design: scale not given: the % may be the effect or the level left; conditions: in vivo
# [13] = Nephrotoxicity in Balb/c mouse infected with Trypanosoma cruzi MHOM/Pe/2011/Arequipa DTU 5 trypomastigotes assessed as change in serum urea level at 20 mg/kg, po once daily for 5 consecutive days starting from day 10 post infection measured on day 127 post infection (reference value: 31 mg/dl); type: toxicity, organism-based; conditions: in vivo
# [14] = Nephrotoxicity in Balb/c mouse infected with Trypanosoma cruzi MHOM/Pe/2011/Arequipa DTU 5 trypomastigotes assessed as decrease in serum urea level at 20 mg/kg, po once daily for 5 consecutive days starting from day 75 post infection measured on day 81 post infection relative to control; type: toxicity, organism-based; design: scale not given: the % may be the effect or the level left; conditions: in vivo
# [15] = Nephrotoxicity in Balb/c mouse infected with Trypanosoma cruzi MHOM/Pe/2011/Arequipa DTU 5 trypomastigotes assessed as decrease in serum urea level at 20 mg/kg, po once daily for 5 consecutive days starting from day 75 post infection measured on day 127 post infection relative to control; type: toxicity, organism-based; design: scale not given: the % may be the effect or the level left; conditions: in vivo
# [16] = Nephrotoxicity in Balb/c mouse infected with Trypanosoma cruzi MHOM/Pe/2011/Arequipa DTU 5 trypomastigotes assessed as decrease in serum uric acid level at 20 mg/kg, po once daily for 5 consecutive days starting from day 10 post infection measured on day 16 post infection relative to control; type: toxicity, organism-based; design: scale not given: the % may be the effect or the level left; conditions: in vivo
# [17] = Nephrotoxicity in Balb/c mouse infected with Trypanosoma cruzi MHOM/Pe/2011/Arequipa DTU 5 trypomastigotes assessed as serum uric acid level at 20 mg/kg, po once daily for 5 consecutive days starting from day 10 post infection measured on day 127 post infection (reference value: 4 mg/dl); type: toxicity, organism-based; conditions: in vivo
# [18] = Nephrotoxicity in Balb/c mouse infected with Trypanosoma cruzi MHOM/Pe/2011/Arequipa DTU 5 trypomastigotes assessed as decrease in serum uric acid level at 20 mg/kg, po once daily for 5 consecutive days starting from day 75 post infection measured on day 81 post infection relative to control; type: toxicity, organism-based; design: scale not given: the % may be the effect or the level left; conditions: in vivo
# [19] = (§1) Cardiotoxicity in Balb/c mouse infected with Trypanosoma cruzi MHOM/Pe/2011/Arequipa DTU 5 trypomastigotes assessed as change in ratio of creatine kinase in muscle to brain at 20 mg/kg, po once daily for 5 consecutive days starting from day 10 post infection measured on day 127 post infection by biochemical analysis (reference value: 496 U/L); type: toxicity, organism-based; conditions: in vivo
# [20] = as §1, with “75” for “10”, “infection” for “infection by biochemical analysis”, “538” for “496”; type: toxicity, organism-based; conditions: in vivo
# [21] = (§2) Cardiotoxicity in Balb/c mouse infected with Trypanosoma cruzi MHOM/Pe/2011/Arequipa DTU 5 trypomastigotes assessed as change in serum LDH level at 20 mg/kg, po once daily for 5 consecutive days starting from day 10 post infection measured on day 127 post infection by biochemical analysis (reference value: 2761 U/L); type: toxicity, organism-based; conditions: in vivo
# [22] = Hepatotoxicity in Balb/c mouse infected with Trypanosoma cruzi MHOM/Pe/2011/Arequipa DTU 5 trypomastigotes assessed as increase in ratio of serum AST to GOT level at 20 mg/kg, po once daily for 5 consecutive days starting from day 10 post infection measured on day 127 post infection by biochemical analysis relative to control; type: toxicity, organism-based; conditions: in vivo
# [23] = (§3) Hepatotoxicity in Balb/c mouse infected with Trypanosoma cruzi MHOM/Pe/2011/Arequipa DTU 5 trypomastigotes assessed as decrease in ratio of serum ALT to GPT level at 20 mg/kg, po once daily for 5 consecutive days starting from day 75 post infection measured on day 81 post infection relative to control; type: toxicity, organism-based; design: scale not given: the % may be the effect or the level left; conditions: in vivo
# [24] = Hepatotoxicity in Balb/c mouse infected with Trypanosoma cruzi MHOM/Pe/2011/Arequipa DTU 5 trypomastigotes assessed as increase in total bilirubin level at 20 mg/kg, po once daily for 5 consecutive days starting from day 10 post infection measured on day 16 post infection relative to control; type: toxicity, organism-based; conditions: in vivo
# [25] = Hepatotoxicity in Balb/c mouse infected with Trypanosoma cruzi MHOM/Pe/2011/Arequipa DTU 5 trypomastigotes assessed as increase in total bilirubin level at 20 mg/kg, po once daily for 5 consecutive days starting from day 10 post infection measured on day 127 post infection by biochemical analysis relative to control; type: toxicity, organism-based; conditions: in vivo
# [26] = Hepatotoxicity in Balb/c mouse infected with Trypanosoma cruzi MHOM/Pe/2011/Arequipa DTU 5 trypomastigotes assessed as increase in alkaline phosphatase level at 20 mg/kg, po once daily for 5 consecutive days starting from day 10 post infection measured on day 16 post infection relative to control; type: toxicity, organism-based; conditions: in vivo
# [27] = as §2, with “Hepatotoxicity” for “Cardiotoxicity”, “alkaline phosphatase” for “serum LDH”, “161” for “2761”; type: toxicity, organism-based; conditions: in vivo
# [28] = Nephrotoxicity in Balb/c mouse infected with Trypanosoma cruzi MHOM/Pe/2011/Arequipa DTU 5 trypomastigotes assessed as decrease in serum uric acid level at 20 mg/kg, po once daily for 5 consecutive days starting from day 75 post infection measured on day 127 post infection relative to control; type: toxicity, organism-based; design: scale not given: the % may be the effect or the level left; conditions: in vivo
# [29] = as §3, with “Cardiotoxicity” for “Hepatotoxicity”, “creatine kinase in muscle” for “serum ALT”, “brain” for “GPT level”; type: toxicity, organism-based; design: scale not given: the % may be the effect or the level left; conditions: in vivo
SMILES,IC50 (Trypanosoma cruzi [1]) [µM],IC50 (Trypanosoma cruzi [2]) [µM],selectivity ratio [3],Activity (Trypanosoma cruzi [6]),Activity (Trypanosoma cruzi [7]),Activity (Trypanosoma cruzi [9]) [%],inhibition (INH) (Trypanosoma cruzi [10]) [%],Activity [12],Activity [14],Activity [15],Activity [16],Activity [17] [mg/dL],Activity [18],Activity [19] [U/L],Activity [20] [U/L],Activity [21] [U/L],Activity [22],Activity [24],Activity [25],Activity [26],other results
Cl.Cl.Cl.Cl.Cl.Cl.c1ccc2nc(CNCCN(CCNCc3ccc4ccccc4n3)CCNCc3ccc4ccccc4n3)ccc2c1,14,1.1,692,Active,Active,-73.6,56.7,<= 10%,<= 10%,<= 10%,<= 10%,4,<= 10%,496,538,2761,<= 10%,<= 30%,<= 10%,<= 10%,Activity [4]: Non-Toxic; Activity [5]: Non-Toxic; Activity (Trypanosoma cruzi [8]): Active; IC50 [11]: 29 µM; Activity [13]: 34 mg/dL; Activity [23]: <= 10%; Activity [27]: 161 U/L
O=C(Cn1ccnc1[N+](=O)[O-])NCc1ccccc1 [BENZNIDAZOLE],–,–,–,Active,Active,-35.4,22.4,<= 10%,<= 10%,<= 10%,<= 10%,4,<= 10%,496,538,2761,> 40%,<= 20%,<= 10%,<= 20%,Activity [28]: <= 10%; Activity [29]: <= 10%; Activity [27]: 161 U/L
Cl.Cl.Cl.NCCN(CCN)CCNCc1ccc2c(c1)Cc1ccccc1-2,19.3,12.4,365,Active,Active,7.6,18.3,<= 10%,<= 10%,<= 10%,<= 10%,4,<= 10%,496,538,2761,<= 30%,<= 30%,<= 10%,<= 20%,Activity [4]: Non-Toxic; Activity [5]: Non-Toxic; Activity (Trypanosoma cruzi [8]): Active; IC50 [11]: 56.9 µM; Activity [13]: 34 mg/dL; Activity [28]: <= 10%; Activity [29]: <= 10%; Activity [23]: <= 10%
